Here are results for eleven molecules from ChEMBL document CHEMBL1201862, “PubChem BioAssay data set” (2004).

Among the test systems are SK-MEL-5; T47D; NCI-H460; HOP-62; HCT-116; SK-MEL-28; SF-295; SF-268; U-251; MDA-N; SN12C; MOLT-4; TK-10; DU-145; SK-MEL-2; MDA-MB-435; OVCAR-3; EKVX; HCT-15; NCI-H226.
What all share (assay): NCI tumour cell line growth inhibition, 48 h

Counter-ions that a name gives are not always drawn.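 A five-concentration, 48-hour dose response in 96-well plates underlies each endpoint, interpolated linearly between surrounding concentrations. At the GI50, growth is halved.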 Activity calls are given as the source filed them. Rule as the data show it: active = GI50 up to about 1.1 µM and inactive = higher. A value given as a limit tells only on which side of the number the result lay.

For `CNC(=O)CCNC(=O)CCC(=O)OC`, the GI50 in the assay with SK-MEL-5, in the assay with T47D, in the assay with NCI-H460, in the assay on HOP-62, in the assay with HCT-116 and with SK-MEL-28 was > 100 µM (inactive) each time. Also, the GI50 in the assay with SF-295, in the assay with SF-268, in the assay on U-251, in the assay with MDA-N, in the assay on SN12C and in the assay with MOLT-4 was > 100 µM (inactive) in each case. Further, the GI50 in the assay on TK-10, in the assay with DU-145, in the assay on SK-MEL-2, in the assay with MDA-MB-435 and with OVCAR-3 was > 100 µM (inactive) in each case.
In the case of `C[C@@H]1CCC[C@]2(C)O[C@H]2CC[C@@](C)(O)[C@@H]2CC3=C(CO)C(=O)O[C@H]3[C@H]1O2`, the GI50 in the assay on SK-MEL-5 was > 50 µM (inactive); in the assay with T47D it was > 50 µM (inactive); with EKVX, > 50 µM (inactive); with HCT-15, > 50 µM; in the assay on NCI-H460 it was > 50 µM (inactive); in the assay on HOP-62 it was > 50 µM (inactive). The GI50 in the assay with HCT-116, with SK-MEL-28, with SF-295, in the assay with SF-268, with U-251 and with NCI-H226 was > 50 µM (inactive) in each case. The GI50 in the assay on SN12C, in the assay with MOLT-4, with TK-10, with DU-145, in the assay with SK-MEL-2 and in the assay with MDA-MB-435 was > 50 µM (inactive) throughout. In the assay with OVCAR-3, the GI50 was > 50 µM (inactive).
Take `CC(Br)CN(CC(C)Br)c1ccc2c(c1)Cc1ccccc1-2` (stereo unspecified): the GI50 in the assay on SK-MEL-5 was 12.7 µM (inactive); in the assay with T47D, 10.1 µM (inactive); with EKVX, 13.8 µM (inactive); in the assay with HCT-15, 13.1 µM; in the assay on NCI-H460 it was 2.22 µM (inactive); with HOP-62, 11.7 µM (inactive). Besides, the GI50 in the assay on HCT-116 is 11.6 µM (inactive); in the assay with SK-MEL-28, 18.9 µM (inactive); with SF-295, 10.7 µM (inactive); in the assay with SF-268, 10.2 µM (inactive); with U-251, 10.7 µM (inactive); in the assay with MDA-N it was 15.2 µM (inactive). Besides, the GI50 is 11.4 µM (inactive) with SN12C; 2.34 µM (inactive) in the assay on MOLT-4; 12.3 µM (inactive) with TK-10; 11.1 µM (inactive) with DU-145; 15.7 µM (inactive) with SK-MEL-2; 13.7 µM (inactive) with MDA-MB-435. Also, in the assay on OVCAR-3, the GI50 was 11.7 µM (inactive).
For the molecule `COC(=O)[C@H]1ON2O[C@@H](O[C@H]3CCCC[C@@H]3C(C)(C)c3ccccc3)C[C@@H]3CC[C@H]1[C@@]32C`, the GI50 in the assay with SK-MEL-5 was > 100 µM (inactive); in the assay on T47D it was > 100 µM (inactive); in the assay with EKVX, > 100 µM (inactive); in the assay with HCT-15 it was > 100 µM; in the assay with NCI-H460, > 100 µM (inactive); in the assay on HOP-62, > 100 µM (inactive). Further, the GI50 in the assay with HCT-116, with SF-295, with SF-268, in the assay on U-251, in the assay with NCI-H226 and in the assay on MDA-N was > 100 µM (inactive) in each case. In addition, the GI50 in the assay on SN12C, in the assay on MOLT-4, in the assay on TK-10, in the assay with DU-145, in the assay with MDA-MB-435 and in the assay on OVCAR-3 was > 100 µM (inactive) in each case.
Turning to `O=CCC1CCCCC1`, the GI50 with SK-MEL-5 was > 100 µM (inactive); in the assay with T47D it was > 100 µM (inactive); with EKVX, > 100 µM (inactive); in the assay with HCT-15, > 100 µM; with NCI-H460, > 100 µM (inactive); in the assay with HOP-62 it was > 100 µM (inactive). In addition, the GI50 with HCT-116, in the assay on SK-MEL-28, in the assay on SF-295, in the assay with SF-268, in the assay on NCI-H226 and with MDA-N was > 100 µM (inactive) throughout. Moreover, the GI50 in the assay with SN12C, in the assay on MOLT-4, in the assay with SK-MEL-2, in the assay with MDA-MB-435 and with OVCAR-3 was > 100 µM (inactive) throughout.
In the case of `Cc1ccc2c(c1)C(O)(c1ccccc1)CCS2` (stereo unspecified), the GI50 with SK-MEL-5 was 29 µM (inactive); in the assay with T47D it was 28.2 µM (inactive); in the assay on EKVX it was 51.4 µM (inactive); in the assay on HCT-15, 19.5 µM; with NCI-H460 it was 34.8 µM (inactive); with HOP-62, 33.7 µM (inactive). Besides, the GI50 in the assay with HCT-116 was 20.8 µM (inactive); in the assay with SK-MEL-28 it was 37.6 µM (inactive); with SF-295 it was 30.1 µM (inactive); with SF-268, 38.4 µM (inactive); with U-251 it was 21.7 µM (inactive); in the assay with NCI-H226, 27.5 µM (inactive). The GI50 in the assay with SN12C was 32.6 µM (inactive); in the assay on MOLT-4 it was 15.3 µM (inactive); with TK-10, 32.1 µM (inactive); with DU-145 it was 46.3 µM (inactive); in the assay with SK-MEL-2 it was 25.2 µM (inactive); with MDA-MB-435, 27.7 µM (inactive). The GI50 with OVCAR-3 is 21.3 µM (inactive).
Take `O=[N+]([O-])C(C(Cl)=C(Cl)Cl)=C(N1CCCCC1)N1CCCCC1`: the GI50 in the assay on SK-MEL-5 is > 100 µM (inactive); in the assay with T47D it was 45.6 µM (inactive); in the assay on EKVX, > 100 µM (inactive); with HCT-15 it was > 100 µM; with NCI-H460, > 100 µM (inactive); with HOP-62 it was > 100 µM (inactive). For the same molecule, the GI50 in the assay with HCT-116, in the assay on SK-MEL-28, in the assay on SF-295, with SF-268, in the assay with U-251 and in the assay with NCI-H226 was > 100 µM (inactive) each time. Moreover, the GI50 in the assay with MDA-N is 68.2 µM (inactive); with SN12C it was > 100 µM (inactive); in the assay on MOLT-4 it was 33.7 µM (inactive); with TK-10 it was > 100 µM (inactive); in the assay on DU-145 it was > 100 µM (inactive); with OVCAR-3, 62.2 µM (inactive).
In the case of `O=C(N/C(=C/c1ccc(Cl)cc1Cl)c1nc2ccccc2s1)c1ccccc1`, the GI50 in the assay with SK-MEL-5 was 13.5 µM (inactive); with T47D, 13.4 µM (inactive); with EKVX, 18.5 µM (inactive); in the assay with HCT-15, 4.37 µM; in the assay with NCI-H460, 17.8 µM (inactive); with HOP-62 it was 10.8 µM (inactive). The GI50 was 6.78 µM (inactive) with HCT-116; 15.6 µM (inactive) with SK-MEL-28; 12.7 µM (inactive) with SF-295; 14 µM (inactive) in the assay on SF-268; 2.5 µM (inactive) in the assay with U-251; 13.6 µM (inactive) in the assay with NCI-H226. The GI50 in the assay on SN12C is 9.68 µM (inactive); with MOLT-4, 14.3 µM (inactive); with TK-10, 21 µM (inactive); in the assay with DU-145, 16.2 µM (inactive); in the assay with SK-MEL-2, 17.7 µM (inactive); in the assay with MDA-MB-435, 15.6 µM (inactive). Besides, the GI50 with OVCAR-3 is 7.78 µM (inactive).
For `CCCCCCCCCC[C@@H](O)[C@@H]1CC[C@@H]([C@@H]2CC[C@@H]([C@@H](O)CCCCCCCCCC[C@H](O)CC3=CC(C)OC3=O)O2)O1` (stereo partly specified), the GI50 was 0.0385 µM (active) with SK-MEL-5; 2.63 µM (inactive) in the assay on T47D; 1.61 µM (inactive) in the assay on EKVX; 3.45 µM with HCT-15; 0.895 µM (active) in the assay with NCI-H460; 2.99 µM (inactive) in the assay on HOP-62. Further, the GI50 is 1.91 µM (inactive) with HCT-116; 3.36 µM (inactive) in the assay on SK-MEL-28; 1.71 µM (inactive) with SF-295; 3.87 µM (inactive) in the assay on SF-268; 6.03 µM (inactive) in the assay on U-251; 1.29 µM (inactive) in the assay with NCI-H226. For the same molecule, the GI50 is 5.62 µM (inactive) in the assay on SN12C; 1.77 µM (inactive) in the assay with MOLT-4; 3.48 µM (inactive) in the assay on TK-10; 8.95 µM (inactive) in the assay with DU-145; 6.71 µM (inactive) in the assay with SK-MEL-2; 1.09 µM (active) with MDA-MB-435. For the same molecule, the GI50 in the assay with OVCAR-3 is 3.94 µM (inactive).
Consider `C=C1C(=O)O[C@@H]2[C@H]1CC[C@H](C)[C@]1(O)CCC(=O)[C@@]21C` [CORONOPILIN], for which the GI50 in the assay with SK-MEL-5 was > 10 µM (inactive); in the assay on T47D, > 10 µM (inactive); in the assay on EKVX it was > 10 µM (inactive); with HCT-15, > 10 µM; in the assay with HOP-62 it was > 10 µM (inactive); with HCT-116, > 10 µM (inactive). Besides, the GI50 in the assay with SK-MEL-28, with SF-295, in the assay on SF-268, in the assay with U-251, in the assay on NCI-H226 and in the assay on MDA-N was > 10 µM (inactive) in each case. In addition, the GI50 in the assay with SN12C, in the assay on MOLT-4, with TK-10, with SK-MEL-2, in the assay on MDA-MB-435 and with OVCAR-3 was > 10 µM (inactive) throughout.
With `CN[C@@H]1[C@H](O)[C@H](NC)[C@H]2O[C@@]3(O)C(=O)C[C@@H](C)O[C@H]3O[C@@H]2[C@H]1O` [SPECTINOMYCIN SULFATE], the GI50 with SK-MEL-5 was > 100 µM (inactive); in the assay with T47D, > 100 µM (inactive); in the assay with EKVX it was > 100 µM (inactive); in the assay with HCT-15 it was > 100 µM; with NCI-H460 it was > 100 µM (inactive); with HOP-62, > 100 µM (inactive). In addition, the GI50 in the assay with HCT-116, in the assay with SK-MEL-28, in the assay on SF-295, in the assay on SF-268, with U-251 and in the assay with NCI-H226 was > 100 µM (inactive) each time. The GI50 with MDA-N, in the assay with SN12C, in the assay on MOLT-4, in the assay with DU-145, with MDA-MB-435 and with OVCAR-3 was > 100 µM (inactive) throughout.
